Consider three molecules from patent publication US20110070329A1, “1-tert-Butylcyclohexanecarboxamide and uses thereof as cooling compounds” (priority 2009, published 2011).

“Also recorded” adds a separate entry of the source.

Assay [1] in a line: Flavor evaluation, tasted in water at 10 ppm. The source says:
After expectorating, cooling began to build over time. The residual cooling (approx. five minutes) after expectorating earned a rating of 4 while when the cooler was in mouth, it was rated a 1 (on a scale of 1 to 9) when tasted in water at 10 ppm.

Assay [2] in a line: Evaluation of cooler mixed with fondant. An excerpt:
In this example, Structure III was mixed with a fondant, commercially available from Confectionary House, Troy, N.Y., at levels listed in Table 1.

A short description of assay [3]: Chewing gum evaluation by trained descriptive analysis panel. The conditions noted are these: level 0.20%. As to the method: The following gum base formulation was prepared: […]
Structure III by itself at levels detailed in the Table III was blended with the gum base in a Sigma mixer. The resultant chewing gum blend was then manufactured into strips 1 inch in width and 0.1 inches in thickness. These strips were cut into lengths of 3 inches each.
Samples were profiled by a highly trained descriptive analysis panel. The ballot consisted of the following terms: Total impact, total mint, cooling-mouth closed, cooling—breath in, nasal cooling—breathe in, throat irritation, bitterness, tongue irritation, numbing. Each attribute was rated at discrete time points including 1 minute, 3 minutes, 5 minutes, 10 minutes, 20 minutes, and 30 minutes.

In the case of `CC(C)(C)C1(C(=O)Nc2ccc(CC#N)cc2)CCCCC1` [Structure I, 1-tert-butyl-N-[4-(cyanomethyl)phenyl]cyclohexanecarboxamide], in assay [1], the “flavor properties when tasted in water” value is listed as “bitter upfront, intense cooling upon expectorating”.
`CC(C)(C)C1(C(=O)NCCc2ccccn2)CCCCC1` [Structure II, 1-tert-butyl-N-[2-(pyridine-2-yl)ethyl]cyclohexanecarboxamide]: in assay [1], the “flavor properties when tasted in water” value is recorded as “honey, cream soda, slightly bitter, cooling flavor properties after about thirty seconds”.
Consider `CC(C)(C)C1(C(=O)NCc2ccccn2)CCCCC1` [Structure III, 1-tert-butyl-N-[(pyridine-2-yl)methyl]cyclohexanecarboxamide], for which, in assay [1], the “flavor properties when tasted in water” value was “did not have much cooling except on breath-in. After expectorating, cooling began to build over time”. The “residual cooling rating after expectorating” value in assay [1] (approx. five minutes after expectorating, scale of 1 to 9) was determined as 4. In assay [1] (in mouth, scale of 1 to 9), the “cooling rating when the cooler was in mouth” value turned out to be 1. For the same molecule, the “COMMENTS (cooling evaluation in fondant)” value in assay [2] (50 ppm) was “Slight cooling but quick onset, fills mouth”; in assay [2] (100 ppm), “Quick onset slight bitterness perceived”. For the same molecule, the “Time and Evaluation (chewing gum)” value in assay [3] (0-1 minute) is “Sweet, citrus. Not cooling slightly bitter”; in assay [3] (1-3 minutes), “Cooling is perceivable, but weak”; in assay [3] (3-5 minutes), “bitterness., cooling very weak; also recorded: More cooling. Cooling when breathing. Little”; in assay [3] (5-10 minutes) it was “Cooling is all over the mouth. Some bitterness; also recorded: is perceivable, very slight cooling again very; also recorded: weak”; in assay [3] (10-20 minutes) it was “Cooling is all over the mouth but not very; also recorded: intensive., little to no cooling”; in assay [3] (20-30 minutes), “More bitterness is perceivable. Cooling is; also recorded: moderate and slowly starting to decline; also recorded: little to no cooling”.
